For the assay, the target named is Human Factor XIa (Homo sapiens (Human), UniProt P03951). The assay is described as follows: Factor XIa enzyme activity (chromogenic substrate S-2366). In kind it is biochemical. The following applies: read-out: In vitro FXIa inhibitory activity IC50. The protocol: Inhibitory activities of compounds of the present invention against factor XIa, Xa, XIIa, IXa, VIIa, plasma kallikrein or thrombin were evaluated using appropriate purified proteases and synthetic substrates. The rate of hydrolysis of the chromogenic substrate by the relevant protease was continuously measured at 405 nm.
Human Factor XIa, sequence (P03951 388-625): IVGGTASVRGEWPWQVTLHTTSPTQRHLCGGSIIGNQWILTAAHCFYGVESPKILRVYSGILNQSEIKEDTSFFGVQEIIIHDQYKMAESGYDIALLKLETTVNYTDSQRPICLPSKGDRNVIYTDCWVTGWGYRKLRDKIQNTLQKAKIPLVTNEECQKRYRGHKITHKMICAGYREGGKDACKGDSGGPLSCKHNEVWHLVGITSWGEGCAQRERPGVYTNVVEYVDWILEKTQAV
Human Factor XIa, sequence (P03951 19-387 partner): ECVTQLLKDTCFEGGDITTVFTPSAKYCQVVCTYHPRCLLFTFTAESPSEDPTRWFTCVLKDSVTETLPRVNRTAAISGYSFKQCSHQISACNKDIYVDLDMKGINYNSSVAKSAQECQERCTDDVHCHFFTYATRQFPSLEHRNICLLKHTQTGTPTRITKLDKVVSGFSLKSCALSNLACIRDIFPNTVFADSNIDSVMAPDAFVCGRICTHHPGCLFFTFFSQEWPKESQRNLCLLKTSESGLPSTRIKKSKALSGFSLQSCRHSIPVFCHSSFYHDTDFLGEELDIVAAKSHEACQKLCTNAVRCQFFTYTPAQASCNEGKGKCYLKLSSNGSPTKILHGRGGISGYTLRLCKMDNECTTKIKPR
Inhibitory activity against each enzyme was calculated as % inhibition using the equation described below. % Inhibition=[[(rate without compound)−(rate with compound)](rate without compound)]×100%. Each half maximal inhibitory concentration (IC50) value was determined by plotting the concentration of compound of the invention against the % inhibition. (1-1) Factor XIa Enzyme Activity
Human Factor XIa (Haematologic Technologies Inc.) activity was measured at an enzyme concentration of 0.1 U/mL in 150 mM NaCl, 5 mM KCl, 1 mg/mL PEG6000, 50 mM HEPES-NaOH (pH7.4) with 300 μM S-2366 (pyroGlu-Pro-Arg-pNA, Chromogenix).

[1] abbreviates: human Factor XIa 0.1 U/mL, 300 μM S-2366, pH7.4.

The text below walks through data of patent publication US9732085B2, “Pyridinone and pyrimidinone derivatives as factor Xia” (ONO PHARMACEUTICAL CO., LTD., priority 2011, dated 2017).

The structures appear in SMILES notation. Structures can show the parent of a compound that is named as a salt. Where two headings read alike, the source gives them in different places.

Broadly, the IC50 is the midpoint of a concentration-inhibition curve. Regarding `COCCOC(=O)Nc1ccc(-c2cnc(C3CCc4cc(-c5cc(Cl)ccc5-n5cnnn5)cc(=O)n43)[nH]2)cc1` (centres unmarked) [129(2), 2-methoxyethyl[4-(2-{7-[5-chloro-2-(1H-tetrazol-1-yl)phenyl]-5-oxo-1,2,3,5-tetrahydro-3-indolizinyl}-1H-imidazol-5-yl)phenyl]carbamate], under setting [1], the half-inhibitory concentration (IC50) stood at 4.6 nM.

Consider `COc1cc(Nc2ccc3n(c2=O)C(c2ccc(F)cc2)CCC3)ccc1-n1cnc(C)c1` (centres unmarked) [Comp. Ex 4, reference compound], for which the IC50 (Table 2, comparison with comparative compounds) was more than 10000 nM.

For `CCC(c1nc(-c2ccc(NC(=O)OC)cc2)c(Cl)[nH]1)n1ccc(-c2cc(Cl)ccc2-n2cnnn2)cc1=O` (centres unmarked) [Example 60, methyl{4-[5-chloro-2-(1-{4-[5-chloro-2-(1H-tetrazol-1-yl)phenyl]-2-oxo-1(2H)-pyridinyl}propyl)-1H-imidazol-4-yl]phenyl}carbamate], the IC50 under setting [1] was 7.2 nM.

In the case of `COC(=O)Nc1ccc(-c2cnc(C(C)n3ccc(-c4cc(Cl)ccc4-n4cnnn4)cc3=O)[nH]2)cc1` (centres unmarked) [Example 61, methyl{4-[2-(1-{4-[5-chloro-2-(1H-tetrazol-1-yl)phenyl]-2-oxo-1(2H)-pyridinyl}ethyl)-1H-imidazol-5-yl]phenyl}carbamate], under setting [1], the IC50 is 14 nM.

In the case of `O=C1CCc2cc(-c3c[nH]c(C4CCc5cc(-c6cc(Cl)ccc6-n6cnnn6)cc(=O)n54)n3)ccc2N1` (centres unmarked) [Example 86, 6-(2-{7-[5-chloro-2-(1H-tetrazol-1-yl)phenyl]-5-oxo-1,2,3,5-tetrahydro-3-indolizinyl}-1H-imidazol-4-yl)-3,4-dihydro-2(1H)-quinolinone], the IC50 under setting [1] stood at 3.9 nM.

`COC(=O)Nc1ccc(-c2cnc(C3CCc4cc(-c5cc(Cl)ccc5-n5cnnn5)cc(=O)n43)[nH]2)s1` (centres unmarked) [Example 181, methyl[5-(2-{7-[5-chloro-2-(1H-tetrazol-1-yl)phenyl]-5-oxo-1,2,3,5-tetrahydro-3-indolizinyl}-1H-imidazol-5-yl)-2-thienyl]carbamate]: under setting [1], the IC50 came out at 47 nM.

Take `Nc1ccc(-c2[nH]c([C@@H]3CCc4cc(-c5cc(Cl)ccc5-n5cnnn5)cc(=O)n43)nc2Cl)cn1` [Example 198, (3S)-3-[5-(6-amino-3-pyridinyl)-4-chloro-1H-imidazol-2-yl]-7-[5-chloro-2-(1H-tetrazol-1-yl)phenyl]-2,3-dihydro-5(1H)-indolizinone]: the IC50 under setting [1] was 1.5 nM.

On to `Nc1ccc(-c2cnc([C@@H]3CCc4cc(-c5cc(Cl)ccc5-n5cnnn5)cc(=O)n43)[nH]2)c(Cl)n1` [Example 210, (3S)-3-[5-(6-amino-2-chloro-3-pyridinyl)-1H-imidazol-2-yl]-7-[5-chloro-2-(1H-tetrazol-1-yl)phenyl]-2,3-dihydro-5(1H)-indolizinone], for which, under setting [1], the IC50 was 2.8 nM.

Consider `Nc1ccc(-c2cnc([C@@H]3CCc4cc(-c5cc(Cl)ccc5-n5cnnn5)cc(=O)n43)[nH]2)c(F)n1` [Example 216, (3S)-3-[5-(6-amino-2-fluoro-3-pyridinyl)-1H-imidazol-2-yl]-7-[5-chloro-2-(1H-tetrazol-1-yl)phenyl]-2,3-dihydro-5(1H)-indolizinone], for which the IC50 under setting [1] amounted to 3.8 nM.

As for `COC(=O)Nc1ccc(-c2[nH]c([C@@H]3CCc4cc(-c5cc(Cl)ccc5-n5cnnn5)cc(=O)n43)nc2Cl)nc1` [Example 230, methyl[6-(4-chloro-2-{(3S)-7-[5-chloro-2-(1H-tetrazol-1-yl)phenyl]-5-oxo-1,2,3,5-tetrahydro-3-indolizinyl}-1H-imidazol-5-yl)-3-pyridinyl]carbamate], the IC50 under setting [1] worked out at 11 nM.

Regarding `COC(=O)Nc1ccc(-c2nc(Cl)c(C3CCc4cc(-c5cc(Cl)ccc5-n5cnnn5)cc(=O)n43)[nH]2)cc1` (centres unmarked) [Example 241, methyl[4-(4-chloro-5-{7-[5-chloro-2-(1H-tetrazol-1-yl)phenyl]-5-oxo-1,2,3,5-tetrahydro-3-indolizinyl}-1H-imidazol-2-yl)phenyl]carbamate], the IC50 under setting [1] came to 4.8 nM.

Turning to `COC(=O)Nc1ccc(-c2nnc(C3CCc4cc(-c5cc(Cl)ccc5-n5cnnn5)cc(=O)n43)[nH]2)cc1` (centres unmarked) [Example 245, methyl[4-(5-{7-[5-chloro-2-(1H-tetrazol-1-yl)phenyl]-5-oxo-1,2,3,5-tetrahydro-3-indolizinyl}-4H-1,2,4-triazol-3-yl)phenyl]carbamate], under setting [1], the IC50 turned out to be 17 nM.

As for `COCCC(c1nc(Cl)c(-c2ccc(NC(=O)OC)cc2)[nH]1)n1ccc(-c2cc(Cl)ccc2-n2cnnn2)cc1=O` (centres unmarked) [Example 264, methyl{4-[4-chloro-2-(1-{4-[5-chloro-2-(1H-tetrazol-1-yl)phenyl]-2-oxo-1(2H)-pyridinyl]-3-methoxypropyl)-1H-imidazol-5-yl}phenyl}carbamate], the IC50 under setting [1] worked out at 6.1 nM.

Turning to `COC(=O)Nc1ccc(-c2cnc([C@@H]3CSc4cc(-c5cc(Cl)ccc5-n5cnnn5)cc(=O)n43)[nH]2)cc1` [Example 270, methyl[4-(2-{(3R)-7-[5-chloro-2-(1H-tetrazol-1-yl)phenyl]-5-oxo-2,3-dihydro-5H-[1,3]thiazolo[3,2-a]pyridin-3-yl}-1H-imidazol-5-yl)phenyl]carbamate], the IC50 under setting [1] worked out at 11 nM.

With `COC(=O)Nc1ccc(-c2cnc(C(Cc3cccnc3)n3ccc(-c4cc(Cl)ccc4-n4cnnn4)cc3=O)[nH]2)cc1` (centres unmarked) [Example 278, methyl(4-{2-[1-{4-[5-chloro-2-(1H-tetrazol-1-yl)phenyl]-2-oxo-1(2H)-pyridinyl}-2-(3-pyridinyl)ethyl]-1H-imidazol-5-yl}phenyl)carbamate], under setting [1], the IC50 amounted to 5.7 nM.

`COC(=O)Nc1ccc(-c2cnc([C@@H]3CCc4cc(-c5cc(Cl)ccc5-n5cc(C#N)nn5)cc(=O)n43)[nH]2)cc1` [Example 290, methyl[4-(2-{(3S)-7-[5-chloro-2-(4-cyano-1H-1,2,3-triazol-1-yl)phenyl]-5-oxo-1,2,3,5-tetrahydro-3-indolizinyl}-1H-imidazol-5-yl)phenyl]carbamate]: the IC50 under setting [1] is 2.5 nM.

On to `COC(=O)Nc1ccc(-c2cnc([C@@H]3CCc4cc(-c5cc(C)ccc5-n5cnnn5)cc(=O)n43)[nH]2)cc1` [Example 309, methyl[4-(2-{(3S)-7-[5-methyl-2-(1H-tetrazol-1-yl)phenyl]-5-oxo-1,2,3,5-tetrahydro-3-indolizinyl}-1H-imidazol-5-yl)phenyl]carbamate], for which the IC50 under setting [1] came out at 8.3 nM.

Regarding `O=C(O)c1ccc(-c2cnc([C@@H]3CCc4cc(-c5cc(Cl)ccc5-n5cnnn5)cc(=O)n43)[nH]2)s1` [Example 347, 5-(2-{(3S)-7-[5-chloro-2-(1H-tetrazol-1-yl)phenyl]-5-oxo-1,2,3,5-tetrahydro-3-indolizinyl}-1H-imidazol-5-yl)-2-thiophenecarboxylic acid], under setting [1], the IC50 was 4.2 nM.

Take `O=C(O)c1cc(-c2cnc([C@@H]3CCc4cc(-c5cc(Cl)ccc5-n5cnnn5)cc(=O)n43)[nH]2)cs1` [Example 363, 4-(2-{(3S)-7-[5-chloro-2-(1H-tetrazol-1-yl)phenyl]-5-oxo-1,2,3,5-tetrahydro-3-indolizinyl}-1H-imidazol-5-yl)-2-thiophenecarboxylic acid hydrochloride]: the IC50 under setting [1] turned out to be 1.4 nM.

As for `O=C(O)c1ccc(-c2cnc([C@@H]3CCc4c(Cl)c(-c5cc(Cl)ccc5-n5cnnn5)cc(=O)n43)[nH]2)s1` [Example 387, 5-(2-{(3S)-8-chloro-7-[5-chloro-2-(1H-tetrazol-1-yl)phenyl]-5-oxo-1,2,3,5-tetrahydro-3-indolizinyl}-1H-imidazol-5-yl)-2-thiophenecarboxylic acid hydrochloride], the IC50 under setting [1] came out at 1.6 nM.
